Source: ChEMBL document CHEMBL1131820, “Synthesis of pyrazolidinone antibacterial agents” (1999)
In brackets after ≈: the same amount, converted by molar mass. Activity calls are given as the source filed them. The rule behind the calls is not given here.

Experiments:
Escherichia coli [1] = test: Compound was tested by in vitro qualitative microbiological testings with cephalothin against Escherichia coli; positive synergy test; type: functional, organism-based
Staphylococcus aureus [2] = test: Compound was tested by in vitro qualitative microbiological testings with cephalothin against Staphylococcus aureus; positive synergy test; type: functional, organism-based
Escherichia coli [3] = test: Compound was tested by in vitro qualitative microbiological testings with cephalothin against Escherichia coli; No anti bacterial activity; type: functional, organism-based
Staphylococcus aureus [4] = test: Compound was tested by in vitro qualitative microbiological testings with cephalothin against Staphylococcus aureus; No anti bacterial activity; type: functional, organism-based
Staphylococcus aureus [5] = test: microbe, parasite or virus in culture; type: functional
Micrococcus luteus = test: microbe, parasite or virus in culture; type: functional
Description: Antibacterial activity against Micrococcus luteus; 128 to 512 ug/mL

Escherichia coli [6] = test: In vitro antibacterial activity against Escherichia coli; Active; type: functional, organism-based

MIC (Staphylococcus aureus [5])	MIC (Micrococcus luteus)	Structure (SMILES)	Activity (Escherichia coli [1])	Activity (Staphylococcus aureus [2])	Activity (Escherichia coli [3])	Activity (Staphylococcus aureus [4])	Activity (Escherichia coli [6])
128 µg/mL (≈ 379 µM)	128 µg/mL (≈ 379 µM)	CN1CC(NC(=O)Cc2ccccc2)C(=O)N1C(=O)c1ccccc1 (centres undefined)		positive synergy test			Active
128 µg/mL (≈ 364 µM)	128 µg/mL (≈ 364 µM)	CN1CC(NC(=O)Cc2ccccc2)C(=O)N1C(=O)Cc1ccccc1 (centres undefined)		positive synergy test			Active
128 µg/mL (≈ 362 µM)	128 µg/mL (≈ 362 µM)	CN1CC(NC(=O)Cc2ccccc2)C(=O)N1C(=O)c1cccc(O)c1 (centres undefined)					

Second part, the compound before the results:

Structure (SMILES)	MIC (Staphylococcus aureus [5])	MIC (Micrococcus luteus)	Activity (Escherichia coli [1])	Activity (Staphylococcus aureus [2])	Activity (Escherichia coli [3])	Activity (Staphylococcus aureus [4])	Activity (Escherichia coli [6])
CC(=O)N1C(=O)C(NC(=O)Cc2ccccc2)CN1C (centres undefined)			positive synergy test	positive synergy test			
CN1CC(NC(=O)Cc2ccccc2)C(=O)N1 (centres undefined)					inactive	inactive	
